What was measured:
MPC1 D118G = assay: Growth of yeast expressing MPC1 D118G in the presence of UK-5099; format: cell-based, Saccharomyces cerevisiae; conditions: D118G substitution in MPC1; 500 μM UK-5099 in plates
Experimental: (§1) A plasmid library harboring MPC1 mutants was generated by PCR mutagenesis using methods previously described [Hinman et al., 1981]. mpc1Δ mpc3Δ mae1Δ triple mutant yeast cells were transformed with the MPC1 mutant library and plated onto SD-Ura-Leu supplemented 500 μM UK-5099. Plates were incubated at 30° C. for 72 hours and mutant plasmids were isolated from viable colonies, amplified in E. coli., and then transformed into naive mpc1Δ mpc3Δ mae1Δ triple mutant yeast cells to confirm the conferral of resistance to UK-5099. An MPC1 mutant containing a D118G substitution was recovered from this screen. To quantify UK-5099 resistance conferred by the D118G substitution, uniform suspensions of mpc1Δ mpc3Δ mae1Δ triple mutant yeast cells were transformed with 2 μg empty vector, plasmid harboring wild-type MPC1, or plasmid harboring MPC1 D 118G, and then plated onto either SD-Ura, SD-Ura-Leu, or SD-Ura-Leu plus 500 μM UK-5099.

mae1Δmpc1Δ double mutant = assay: Growth of mae1Δmpc1Δ yeast expressing wild-type MPC1 on glucose medium lacking leucine; format: cell-based, Saccharomyces cerevisiae; conditions: rescue by transgenic wild-type MPC1; 500 μM UK-5099 in plates
Description: Saccharomyces cerevisiae haploid strain BY4741 (MATa his3 leu2 met15 ura3) was used as the parental wild-type strain in the mae1Δ mpc1Δ spot tests and JRY472 (W303a MATa his3 leu2 met15 trp1 ura3) was used as the strain for all other experiments. Single deletion mutations were created in diploid strains by the standard PCR-based homologous recombination method using KanMX4 (kanamycin resistance), NatMX4 (nourseothricin resistance), or HphMX4 (hygromycin B resistance) cassettes to replace the entire gene, followed by sporulation and tetrad dissection to isolate the desired haploid knockout. Double and triple deletion mutants were created by standard crosses. Deletion strains were verified by PCR.
as §1, with “Plates were incubated at 30° C. for 72 hours and mutant plasmids were isolated from viable colonies, amplified in E. coli., and then transformed into naive mpc1Δ mpc3Δ mae1Δ triple mutant yeast cells to confirm the conferral of resistance to UK-5099. An MPC1 mutant containing a D118G substitution was recovered from this screen.” left out

[1] = target: T1, mitochondrial pyruvate carrier (Rattus norvegicus, UniProt P38718+P63031); conditions: Halestrap 1975; cited from earlier work
T1 sequence (P63031 1-109): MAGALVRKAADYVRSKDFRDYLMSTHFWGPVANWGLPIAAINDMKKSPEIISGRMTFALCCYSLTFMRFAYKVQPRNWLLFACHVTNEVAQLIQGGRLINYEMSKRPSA
T1 sequence (P38718 1-127): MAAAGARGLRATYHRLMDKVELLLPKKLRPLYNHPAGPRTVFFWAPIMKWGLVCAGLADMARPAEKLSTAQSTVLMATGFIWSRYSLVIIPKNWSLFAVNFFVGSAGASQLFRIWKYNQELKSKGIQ

MPC1 = target: T2, MPC1 (Saccharomyces cerevisiae, UniProt P38857+P53157); assay: 14C-pyruvate uptake into isolated yeast mitochondria expressing wild-type MPC1; format: biochemical; conditions: 0.2 mM UK-5099, 2 min preincubation, vs DMSO
T2 construct: expressed in transfected cells; host or cells: S. cerevisiae mpc1Δ strain carrying an MPC1 plasmid; isolated mitochondria
T2 sequence (P53157 1-130): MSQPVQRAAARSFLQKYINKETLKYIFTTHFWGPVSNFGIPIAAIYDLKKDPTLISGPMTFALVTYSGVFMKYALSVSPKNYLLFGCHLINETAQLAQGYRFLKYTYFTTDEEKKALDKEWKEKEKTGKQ
T2 sequence (P38857 1-129): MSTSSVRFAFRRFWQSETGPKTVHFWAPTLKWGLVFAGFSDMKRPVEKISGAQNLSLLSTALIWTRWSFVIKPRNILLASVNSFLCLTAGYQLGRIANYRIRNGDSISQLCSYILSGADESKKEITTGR
Experimental: (§2) Yeast mitochondria were isolated using a simplified version of the method described by Boldogh and Pon [Wittig et al., 2006]. Briefly, yeast were grown in synthetic 2% raffinose media to an A600˜3.0 and collected. The cells were pelleted, washed with sterile water, re-pelleted, and then frozen at −80° C. Mitochondrial isolation began by thawing the cells on ice, digesting the cell wall with lyticase (Sigma) for one hour to generate spheroplasts. Following 40 minutes in regeneration buffer, spheroplasts were lysed using a Dounce homogenizer. The mitochondria were further purified through several high and low speed centrifugation steps.
(§3) Mitochondria used for pyruvate uptake experiments were extracted from live cells, kept on ice and used within 5 hours of harvest without freezing. An estimate of mitochondrial concentration was calculated using A280. Samples were then diluted to yield equal mitochondrial mass and centrifuged at 10000 rpm for 10 minutes to pellet mitochondria. The supernatant was then removed and the mitochondrial pellet was resuspended in respiratory buffer (120 mM KCl, 5 mM KH2PO4, 1 mM EGTA, and 3 mM HEPES pH 7.4) and placed on ice.
(§4) To initiate pyruvate uptake, 50 μL of mitochondria was added to 100 μL of room temperature respiratory buffer at pH 6.8 in a microcentrifuge tube. […] Five biological replicates were analyzed per group. […]

MPC1-D118G = target: T3, MPC1-D118G (Saccharomyces cerevisiae, UniProt P38857+P53157, D118G); assay: 14C-pyruvate uptake into isolated yeast mitochondria expressing MPC1-D118G; format: biochemical; conditions: 0.2 mM UK-5099, 2 min preincubation, vs DMSO
T3 construct: expressed in transfected cells; host or cells: S. cerevisiae mpc1Δ strain carrying an MPC1-D118G plasmid; isolated mitochondria
Experimental: as §2, §3, §4

T3 sequence (P53157 whole entry D118G, one chain of several): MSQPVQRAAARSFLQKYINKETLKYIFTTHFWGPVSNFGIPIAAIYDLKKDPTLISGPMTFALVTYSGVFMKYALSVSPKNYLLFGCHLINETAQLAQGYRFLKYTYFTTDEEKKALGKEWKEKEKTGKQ

In the case of `N#C/C(=C\c1cn(-c2ccccc2)c2ccccc12)C(=O)O` [UK-5099], the “growth in the presence of UK-5099” value (MPC1 D118G) is listed as “conferred UK-5099 resistance”, the “growth on glucose medium lacking leucine” value (mae1Δmpc1Δ double mutant) is listed as “effectively rescued by transgenic expression of wild-type MPC1 in the absence, but not the presence, of UK-5099” and the “inhibition of carrier activity” value [1] is listed as “specific and potent inhibitors of carrier activity”. The “14C-pyruvate uptake into mitochondria” value (MPC1) was “almost completely inhibited” and the “14C-pyruvate uptake into mitochondria” value (MPC1-D118G) was “efficient pyruvate uptake that is resistant to UK-5099”.
